{
  "source": "patent US20240358818A1",
  "about": "“ANTIBODY-INDUCING POLYPEPTIDE AND VACCINE” (priority 2021, published 2024)",
  "key": {"[1]": {"target": "S2 protein of SARS-COV-2 (Severe acute respiratory syndrome coronavirus 2, UniProt P0DTC2)"}, "[2]": {"system": "IgG in serum samples of patients recovered from SARS-COV-2 infection", "format": "binding, human"}, "[3]": {"target": "RBD protein of SARS-COV-2 (Severe acute respiratory syndrome coronavirus 2, UniProt P0DTC2)"}, "[4]": {"target": "binding between ACE2 and RBD (Severe acute respiratory syndrome coronavirus 2, UniProt P0DTC2)", "details": "for inhibition of the binding between ACE2 and RBD: serum of mice sensitized with conjugate, FIG. 2, FIG. 3(A)"}},
  "note": "No end group written: not given here.",
  "data": [
    {"sequence": "ASVVNIQKEIDRLNEVAKNL [#114]", "values": [
      {"measurement": "S2 recognizing ability of mouse serum IgG", "setting": "[1]", "value": "high"},
      {"measurement": "reaction with antibodies in serum samples obtained from the 5 patients", "setting": "[2]", "value": "strongly react"}
    ]},
    {"sequence": "DRLNEVAKNLNESLIDLQE (also: conjugate) [#115]", "values": [
      {"measurement": "S2 recognizing ability of mouse serum IgG", "setting": "[1]", "value": "high"},
      {"measurement": "reaction with antibodies in serum samples obtained from the 5 patients", "setting": "[2]", "value": "strongly react"}
    ]},
    {"sequence": "ELDSFKEELDKYFKNHTS (also: conjugate) [#111]", "values": [
      {"measurement": "S2 recognizing ability of mouse serum IgG", "setting": "[1]", "value": "high"},
      {"measurement": "reaction with antibodies in serum samples obtained from the 5 patients", "setting": "[2]", "value": "strongly react"}
    ]},
    {"sequence": "EVRQIAPGQTGKIADYNYKLPD [#8]", "values": [
      {"measurement": "RBD recognition ability of mouse serum IgG", "setting": "[3]", "value": "high"}
    ]},
    {"sequence": "NATRFASVYAWNRKRISNC [#3]", "values": [
      {"measurement": "inhibition of the binding between ACE2 and RBD", "setting": "[4]", "value": "inhibit the binding between ACE2 and RBD"},
      {"measurement": "RBD recognition ability of mouse serum IgG", "setting": "[3]", "value": "high"}
    ]},
    {"sequence": "SNLKPFERDISTEIYQAGSTPC [#11]", "values": [
      {"measurement": "inhibitory ability on ACE2-RBD binding compared with positive control", "setting": "[4]; mouse serum diluted to 100-fold, positive control mouse anti-RBD polyclonal antibody, FIG. 2", "value": "equivalent to that of the positive control"},
      {"measurement": "inhibitory effects on ACE2-RBD binding compared with serum of recovered patients", "setting": "[4]; versus the 4 patients other than patient A, FIG. 3(B)", "value": "substantially equivalent"},
      {"measurement": "RBD recognition ability of mouse serum IgG", "setting": "[3]", "value": "high"}
    ]},
    {"sequence": "YGVSPTKLNDLCF (also: conjugate) [#5]", "values": [
      {"measurement": "inhibition of the binding between ACE2 and RBD", "setting": "[4]", "value": "substantially no inhibitory activity was observed"},
      {"measurement": "RBD recognition ability of mouse serum IgG", "setting": "[3]", "value": "without the RBD protein recognizing ability"}
    ]}
  ]
}
